# Test results as given in ChEMBL document CHEMBL1146424, “New Steroidal Alkaloids from the Roots of Buxus sempervirens” (1997).
# Activity calls are given as the source filed them. The rule behind the calls is not given here.
# Assays:
# Lemna minor [1] = test: Phytotoxicity against Lemna minor L. at 50 ppm; assay type: functional
# Lemna minor [2] = test: Phytotoxicity against Lemna minor L. at 500 ppm; assay type: functional
# Escherichia coli = test: Antibacterial activity against Escherichia coli at 200 ug/100 uL by agar well diffusion assay; assay type: functional, organism-based
# Proteus vulgaris = test: Antibacterial activity against Proteus vulgaris at 200 ug/100 uL by agar well diffusion assay; assay type: functional, organism-based
# Stachybotrys chartarum = test: Antifungal activity against Stachybotrys atra at […] after 7 days by tube dilution method; assay type: functional, organism-based
# Salmonella typhi = test: Antibacterial activity against Salmonella typhi at 200 ug/100 uL by agar well diffusion assay; assay type: functional, organism-based; conditions: Salmonella enterica subsp. enterica serovar Typhi
# Shigella flexneri = test: Antibacterial activity against Shigella flexnerii at 200 ug/100 uL by agar well diffusion assay; assay type: functional, organism-based
# Proteus mirabilis = test: Antibacterial activity against Proteus mirabilis at 200 ug/100 uL by agar well diffusion assay; assay type: functional, organism-based
# Epidermophyton floccosum = test: Antifungal activity against Epidermophyton floccosum at […] after 7 days by tube dilution method; assay type: functional, organism-based
# Microsporum canis = test: Antifungal activity against Microsporum canis at […] after 7 days by tube dilution method; assay type: functional, organism-based
# Lemna minor [3] = test: Phytotoxicity against Lemna minor L. at 5 ppm; assay type: functional
smiles,measurement,setting,value
C[C@@H]([C@H]1[C@H](O)C[C@@]2(C)[C@@H]3CC[C@@H]4C(=CC[C@H](NC(=O)c5ccccc5)C4(C)C)CC3=CC[C@]12C)N(C)C [16ALPHA-HYDROXY-NA-BENZOYLBUXADINE],Activity,Lemna minor [1],28.6%
same,Activity,Lemna minor [2],46%
same,Activity,Escherichia coli,Active
same,Activity,Proteus vulgaris,Active
same,Activity,Stachybotrys chartarum,Active
same,Activity,Salmonella typhi,Active
same,Activity,Shigella flexneri,Active
same,Activity,Proteus mirabilis,Active
same,Activity,Epidermophyton floccosum,Active
same,Activity,Microsporum canis,Active
same,Activity,Lemna minor [3],20.3%
